Assay results published in US9278087B2, “Derivative of butylphthalide and preparation method and use thereof” (Shijiazhuang Yiling Pharmaceutical Co., Ltd, priority 2011, dated 2016).
Counter-ions that a name gives are not always drawn. Like-named read-outs stand apart in the source and are kept apart here. Marks after values point to notes of the source that are not given here.

What was measured:
[1] = test system: mice induced by pentobarbital sodium; assay: Hypnosis test of pentobarbital sodium in dosage below threshold; type: in vivo, Kunming mice; settings: for Incidence of sleep / Number of animals falling asleep: 25 mg/kg gavage, pentobarbital sodium 30 mg/kg i.p., within 25 min; for Number of animals falling asleep: 10 animals per group; for Number of animals falling asleep and incidence of sleep compared with control group, in words: pentobarbital sodium in dosage below threshold
Method: (§1) Source of animals: Kunming mice, 18˜22 g, male, were clean grade animals provided by Guangdong Medical Lab Animal Center. In the breeding room of the experimental animals, the temperature was 22±2° C., the relative humidity was 55˜70%, and the animal feed was provided by Guangdong Medical Lab Animal Center.
(§2) 3 groups of Compound 7, Compound 8, DL-3-(3′-hydroxy)-butylphthalide (DL for short) were set in the experiment, 25 mg/kg respectively. And distilled water control group was additionally set.
(§3) Sample processing: 25 mg respective sample was taken, and added with distilled water to 20 ml, to form a uniform suspension, for use in the test.
(§4) Route for administration: gavage
40 male mice with a body weight of 18˜22 g were selected, and randomly divided into 4 groups, 10 mice in each group. They were consecutively administered with samples for 28 days, and 15 min after the administration of the samples by gavage on the 30th day, each group of animals were i.p. injected with 30 mg/kg.b.w pentobarbital sodium, and the injection amount was 0.2 ml/20 g.b.w. The criterion for judging falling asleep was that the righting reflex in a mouse disappeared for 1 min or more. The time for the occurrence of sleep of each group of animals within 25 min were observed after administration of pentobarbital sodium.

[2] = test system: mice induced by pentobarbital sodium; assay: Hypnosis test of pentobarbital sodium in dosage above threshold; type: in vivo, Kunming mice; settings: for Time for falling asleep / Sleeping time: 25 mg/kg gavage for 30 days, pentobarbital sodium 50 mg/kg i.p.; for Sleeping time: within 60 min; for Effect of improving sleep, in words: oral administration to mice for 30 days, summary of both hypnosis tests
Method: as §1, §2, §3, §4
40 male mice with a body weight of 18˜22 g were selected, and randomly divided into 4 groups, 10 mice in each group. They were consecutively administered with samples for 30 days, and 15 min after the administration of the samples by gavage on the 30th day, each group of animals were i.p. injected with 50 mg/kg.b.w pentobarbital sodium, and the injection amount was 0.2 ml/20 g.b.w. The criterion for judging falling asleep was that the righting reflex in a mouse disappeared for 1 min or more. The time for falling asleep and the sleeping time of each group of animals within 60 min were observed after administration of pentobarbital sodium.

rats with local ischemia [3] = assay: Volume of cerebral infarction in tMCAO rats, gavage administration; type: in vivo, Wistar rats; settings: for Volume of cerebral infarction (25 mg/kg group): 25 mg/kg oral (gavage) 10 min after ischemia; for Volume of cerebral infarction (25 mg/kg group) / Volume of cerebral infarction (50 mg/kg group) / Volume of cerebral infarction (100 mg/kg group): 2 hr ischemia, 24 hr reperfusion; for Volume of cerebral infarction (50 mg/kg group): 50 mg/kg oral (gavage) 10 min after ischemia; for Volume of cerebral infarction (100 mg/kg group): 100 mg/kg oral (gavage) 10 min after ischemia; for Effect on the volume of cerebral infarction, in words: oral administration, compared with solvent control group
Method: (§5) Wistar rats, body weight 250˜280 g, were raised separately before and after the surgical operation, and kept at room temperature of 23˜25° C. All the rats were allowed ad libitum access to food and water. tMCAO models were prepared according to the method of longa, et al. Rats were anaesthetized with 10% chloral hydrate (350 mg/kg, i.p.), and the body temperature was maintained at 37±0.5° C. The rat was fixed in supine position onto an operating table. The skin was cut along the midline of the neck, and the common carotid artery (CCA), external carotid artery (ECA) and internal carotid artery (ICA) on the right side were carefully isolated. The ECA was ligated and cut, and straightened in line with the ICA. A small incision was cut on the ECA, and a 4.0 cm long round-head silicified nylon thread with a diameter of 0.26 mm (coated with 0.1% polylysine) was inserted through this incision into the ICA for about 1.85˜2.00 cm, until the starting place of the anterior cerebral artery of the rat, to block the blood supply of the middle cerebral artery. After 2 hr of ischemia, the nylon thread was pulled out carefully, the ECA incision was ligated, and the operational incision was sutured. The animal was returned to the cage for 24 hr reperfusion.
Rats were randomly divided into 12 groups: model control group, water for injection (100 mg/kg), the administration group of the Compound 7 in Example 1 (25, 50, 100 mg/kg), the administration group of the Compound 8 in Example 1 (25, 50, 100 mg/kg), the administration group of DL-3-(3′-hydroxy)-butylphthalide (DL for short) (25, 50, 100 mg/kg). They were orally administered 10 min after the ischemia caused by MCA blockage.
(§6) After reperfusion injury in the rat for 24 hr, the rat was beheaded and the brain was taken out immediately. The olfactory tract, the cerebellum and the low brain stem were removed. The brain was coronally cut into 6 slices (the first slice to the fifth slice was 2 mm/slice, and the sixth slice was 4 mm), and they were rapidly placed into 5 ml solution containing 1.5 ml 4% TTC and 0.1 ml 1 M K2HPO4 to stain (37° C., shielded from light) for 20˜30 min, wherein they are flipped once every 5 min. After the TTC staining, the normal tissue was dark stained and appeared red, and the infarcted tissue appeared white. Each group of brain slices were neatly arranged and were taken photos for preservation. The infarction area in each slice was calculated, and the infarction volume was finally converted by superposition. The infarction volume was expressed in percentage in a cerebral hemisphere, to eliminate the effects of cerebral edema. Brain infarction volume(%)=(volume of the contralateral hemisphere to the operated side−volume of uninfarcted portion of the operated hemisphere)/volume of the contralateral hemisphere to the operated side*100% (4) Experimental Results

Solubility in water = type: physicochemical
rats with local ischemia [4] = type: in vivo
Method: as §5, §6
Rats of the ischemia blocking model in Example 11 were taken, and randomly divided into 12 groups: sham operation group, model control group, (water for injection, 10 mg/kg), 1a group (2.5 mg/kg, 5.0 mg/kg, 10 mg/kg), 1b group (2.5 mg/kg, 5.0 mg/kg, 10 mg/kg), and 1c group (2.5 mg/kg, 5.0 mg/kg, 10 mg/kg). 10 min after ischemia caused by MCA blockage, they were administered intravenously.
The determination of the volume of cerebral infarction was the same to Example 4.

[5] = 2.5 mg/kg intravenous 10 min after ischemia, 2 hr ischemia, 24 hr reperfusion
[6] = 5.0 mg/kg intravenous 10 min after ischemia, 2 hr ischemia, 24 hr reperfusion
[7] = 10.0 mg/kg intravenous 10 min after ischemia, 2 hr ischemia, 24 hr reperfusion

Row | SMILES | Incidence of sleep [1] | Number of animals falling asleep [1] | Number of animals falling asleep and incidence of sleep compared with control group, in words [1] | Time for falling asleep [2] [min] | Sleeping time [2] [min] | Effect of improving sleep, in words [2] | Volume of cerebral infarction (25 mg/kg group) (rats with local ischemia [3]) [%] | Volume of cerebral infarction (50 mg/kg group) (rats with local ischemia [3]) [%] | Volume of cerebral infarction (100 mg/kg group) (rats with local ischemia [3]) [%] | Effect on the volume of cerebral infarction, in words (rats with local ischemia [3]) | Volume of cerebral infarction (2.5 mg/kg group) (rats with local ischemia [4]; [5]) [%] | Volume of cerebral infarction (5.0 mg/kg group) (rats with local ischemia [4]; [6]) [%] | Volume of cerebral infarction (10.0 mg/kg group) (rats with local ischemia [4]; [7]) [%] | also measured
1 | CC(O)CCC1OC(=O)c2ccccc21 (racemic) [DL, DL-3-(3′-hydroxy)-butylphthalide, reference compound] | 50% | 5 | have significant difference | 4.68 ± 1.35 | 45.48 ± 11.23 | have effects of improving sleep | 17.2 | 16.4 | 14.5 | can significantly reduce the volume of cerebral infarction |  |  |  | 
2 | CC(O)CC[C@H]1OC(=O)c2ccccc21 (single isomer, unassigned; (+)) [Compound 7] | 30% | 3 |  | 5.78 ± 1.88 | 41.16 ± 7.80 | does not have the effect of improving sleep | 19.8 | 18.9 |  | did not effectively reduce the volume of cerebral infarction |  |  |  | Effect on the volume of cerebral infarction, in words (rats with local ischemia [3]; listed as R-configuration): cannot affect the cerebral infarct volume; Effect on the volume of cerebral infarction, in words (rats with local ischemia [3]; listed as compound in R-configuration): does not have the effect of reducing the cerebral infarct volume
3 | CC(O)CC[C@@H]1OC(=O)c2ccccc21 (single isomer, unassigned; (-)) [Compound 8] | 80* % | 8* | have significant difference | 3.91 ± 0.99 | 53.28 ± 11.12 | have effects of improving sleep | 14.6 | 13.8 | 11.8 | can significantly reduce the volume of cerebral infarction |  |  |  | Solubility in water, in words (Solubility in water): insoluble in water; Effect of improving sleep, in words ([2]; listed as S-configuration): can improve the sleeping state in animals; Effect of improving sleep, in words ([2]; listed as S-configuration of the Metabolite I): has the effect of improving sleep; Time for falling asleep and sleeping time compared with control group, in words ([2]; pentobarbital sodium in dosage above threshold): have significant difference; Effect on the volume of cerebral infarction, in words (rats with local ischemia [3]; listed as S-configuration): decreasing the cerebral infarct volume
4 | CC(CC[C@@H]1OC(=O)c2ccccc21)OC(=O)CCC(=O)[O-].[Na+] (stereo partly drawn) [Compound 1a, sodium salt of (S)-3-(3′-succinate ester)butylphthalide] |  |  |  |  |  |  |  |  |  |  | 21 | 15.4 | 11.8 | 
5 | CC(CC[C@@H]1OC(=O)c2ccccc21)OC(=O)CN (stereo partly drawn) [Compound 1b, (S)-3-(3′-glycinate ester)butylphthalide hydrochloride] |  |  |  |  |  |  |  |  |  |  |  |  |  | Volume of cerebral infarction (2.5 mg/kg group) (rats with local ischemia [4]; rat, in vivo): 21.3%; Volume of cerebral infarction (5.0 mg/kg group) (rats with local ischemia [4]; rat, in vivo): 16.0%; Volume of cerebral infarction (10.0 mg/kg group) (rats with local ischemia [4]; rat, in vivo): 12.0%
6 | CC(CC[C@@H]1OC(=O)c2ccccc21)OP(=O)([O-])[O-].[Na+].[Na+] (stereo partly drawn) [Compound 1c, (S)-3-(3′-phosphate ester)butylphthalide disodium salt] |  |  |  |  |  |  |  |  |  |  | 20.6 | 15.8 | 11.7 | 
